From paper PMC9266561, “1,3-Benzodioxole Derivatives Improve the Anti-Tumor Efficiency of Arsenicals” (International Journal of Molecular Sciences, 2022)
Where two headings read alike, the source gives them in different places.

Columns and labels:
cancer cells = assay: MTT assay, cancer cell lines taken together; format: cell-based; settings: even at a high dosage, Figure S2
Protocol: The bioactivity of all the synthetic compounds was evaluated by a MTT assay (Table 1, Tables S1 and S2) against two leukemia cell lines, Molm-13 and NB4; two solid tumor cell lines, HeLa (human cervix cell line) and 4T1 (breast cancer cell line); and two normal cell lines, COS-7 (African green monkey kidney cell line) and rat PBMC (peripheral blood mononuclear cell line).
Cells were cultured in 96-well plates overnight, followed by adding 80 μL of a related medium containing compounds of different concentrations and dissolved in DMSO for 24 h or 48 h. Then, 40 μL of MTT (2.5 mg/mL) was added and the cells were incubated for another 4 h. The cells were then dissolved in 100 μL of 10% SDS solution or DMSO to release and dissolve the purple MTT products, followed by absorbance detection (BioTek, Winooski, VT, USA).

HeLa = assay: cells; format: cell-based, human; settings: Homo sapiens, HeLa
COS-7 = assay: cells; format: cell-based, African green monkey; settings: Chlorocebus sabaeus
Molm-13 = assay: cells; format: cell-based; settings: Homo sapiens
PBMC = assay: cells; format: cell-based, rat; settings: Rattus norvegicus, PBMC
4T1 = assay: cells; format: cell-based; settings: Mus musculus
NB4 = assay: cells; format: cell-based; settings: Homo sapiens
[1] = COS-7, 24 h, read-out: IC50 COS-7 24 h
[2] = COS-7, 48 h, read-out: IC50 COS-7 48 h
[3] = MOLM-13, 24 h, read-out: IC50 Molm
[4] = MOLM-13, 24 h, read-out: IC50 Molm 24 h
[5] = MOLM-13, 48 h, read-out: IC50 Molm
[6] = MOLM-13, 48 h, read-out: IC50 Molm 48 h
[7] = 4T1, 24 h, read-out: IC50 4T1 24 h
[8] = 4T1, 48 h, read-out: IC50 4T1 48 h
[9] = NB-4, 24 h, read-out: IC50 NB4 24 h
[10] = NB-4, 48 h, read-out: IC50 NB4 48 h

| Structure (SMILES) | anti-proliferation activity to cancer cells (cancer cells) | IC50 (HeLa; 24 h, read-out: IC50 HeLa 24 h) | IC50 (HeLa; 48 h, read-out: IC50 HeLa 48 h) | IC50 (COS-7; [1]) | IC50 (COS-7; [2]) | IC50 (Molm-13; [3]) | IC50 (Molm-13; [4]) | IC50 (Molm-13; [5]) | IC50 (Molm-13; [6]) | IC50 (PBMC; 24 h, read-out: IC50 PBMC 24 h) | IC50 (PBMC; 48 h, read-out: IC50 PBMC 48 h) | IC50 (4T1; [7]) | IC50 (4T1; [8]) | IC50 (NB4; NB-4, 24 h, read-out: IC50 NB4) | IC50 (NB4; [9]) | IC50 (NB4; NB-4, 48 h, read-out: IC50 NB4) | IC50 (NB4; [10]) | IC50 (4T1; 4T1, 24 h, read-out: IC50 4T1) | IC50 (4T1; 4T1, 48 h, read-out: IC50 4T1) |
| --- | --- | --- | --- | --- | --- | --- | --- | --- | --- | --- | --- | --- | --- | --- | --- | --- | --- | --- | --- |
| O=C(O)c1ccc2c(c1)OCO2 [1,3-benzodioxole derivative, piperonylic acid] | no anti-proliferation activity |  |  |  |  |  |  |  |  |  |  |  |  |  |  |  |  |  |  |
| CC(=O)Oc1ccc(C(=O)Nc2ccc([As]3SCCCS3)cc2)cc1 [AZ2, 4-((4-(1,3,2-dithiarsinan-2-yl)phenyl)carbamoyl)phenyl acetate] |  | 800 nM | 500 nM | 2200 nM | 2100 nM | 1110 ± 100 nM | 1100 nM | 1010 ± 20 nM | 1000 nM | 5200 nM | 4900 nM | 2000 nM | 1000 nM | 600 ± 50 nM | 600 nM | 600 ± 30 nM | 600 nM |  |  |
| COc1ccc(C(=O)Nc2ccc([As]3SCCCS3)cc2)cc1OC [DAZ2, N-(4-(1,3,2-dithiarsinan-2-yl)phenyl)-3,4-dimethoxybenzamide] |  | 2300 nM | 1060 nM | 7100 nM | 3300 nM |  | 900 nM |  | 750 nM | 6200 nM | 5700 nM | 1500 nM | 1200 nM |  | 1710 nM |  | 1140 nM |  |  |
| COc1ccc(C(=O)Nc2ccccc2[As]2SCCCS2)cc1OC [DAZ5, N-(2-(1,3,2-dithiarsinan-2-yl)phenyl)-3,4-dimethoxybenzamide] |  | 810 nM | 550 nM | 1610 nM | 1270 nM |  | 450 nM |  | 320 nM | 4100 nM | 3500 nM | 600 nM | 500 nM |  | 800 nM |  | 510 nM |  |  |
| CCc1ccc(C(=O)Nc2ccc([As]3SCCCS3)cc2)cc1 [EZ2, N-(4-(1,3,2-dithiarsinan-2-yl)phenyl)-4-ethylbenzamide] |  | 1010 nM | 810 nM | 4200 nM | 2100 nM |  | 1100 nM |  | 1020 nM | 3700 nM | 2900 nM | 1400 nM | 1400 nM |  | 410 nM |  | 300 nM | 1400 ± 120 nM | 1400 ± 120 nM |
| O=C(Nc1ccc([As]2SCCCS2)cc1)c1ccc(F)cc1 [FZ2, N-(4-(1,3,2-dithiarsinan-2-yl)phenyl)-4-fluorobenzamide] |  | 1200 nM | 400 nM | 3500 nM | 2200 nM |  | 1200 nM |  | 1000 nM | 5500 nM | 4700 nM | 2300 nM | 2200 nM |  | 400 nM |  | 300 nM |  |  |
| O=C(Nc1ccccc1[As]1SCCCS1)c1ccc(F)cc1 [FZ5, N-(2-(1,3,2-dithiarsinan-2-yl)phenyl)-4-fluorobenzamide] |  | 350 nM | 150 nM | 1100 nM | 800 nM | 500 ± 10 nM | 500 nM | 500 ± 20 nM | 500 nM | 2400 nM | 1820 nM | 700 nM | 600 nM | 150 ± 100 nM | 150 nM | 150 ± 20 nM | 150 nM |  |  |
| COc1cc(C(=O)Nc2ccc([As]3SCCCS3)cc2)cc(OC)c1O [HDZ2, N-(4-(1,3,2-dithiarsinan-2-yl)phenyl)-4-hydroxy-3,5-dimethoxybenzamide] |  | 2000 nM | 1010 nM | 9100 nM | 3500 nM | 600 ± 120 nM | 600 nM | 600 ± 120 nM | 600 nM | 5800 nM | 4900 nM | 1000 nM | 1010 nM |  | 800 nM |  | 500 nM |  |  |
| Cc1ccc(C(=O)Nc2ccc([As]3SCCCS3)cc2)cc1 [MZ2, N-(4-(1,3,2-dithiarsinan-2-yl)phenyl)-4-methylbenzamide] |  | 610 nM | 400 nM | 3400 nM | 1210 nM |  | 1200 nM |  | 800 nM | 3400 nM | 2700 nM | 1200 nM | 910 nM |  | 400 nM |  | 300 nM |  | 400 ± 110 nM |
| O=C(Nc1ccc([As]2SCCCS2)cc1)c1ccc2c(c1)OC(F)(F)O2 [PFZ2, N-(4-(1,3,2-dithiarsinan-2-yl)phenyl)-2,2-difluorobenzo[d][1,3]dioxole-5-carboxamide] |  | 500 nM | 150 nM | 6000 nM | 3500 nM |  | 800 nM |  | 700 nM | 6300 nM | 5700 nM | 1000 nM | 800 nM |  | 500 nM |  | 300 nM |  |  |
| O=C(Nc1ccc([As]2SCCCS2)cc1)c1ccc2c(c1)OCO2 [PZ2, N-(4-(1,3,2-dithiarsinan-2-yl)phenyl)benzo[d][1,3]dioxole-5-carboxamide] |  | 700 nM | 440 nM | 4100 nM | 1750 nM |  | 1060 nM |  | 750 nM | 6400 nM | 5300 nM | 2600 nM | 3400 nM | 850 ± 100 nM | 700 nM |  | 440 nM | 2550 ± 220 nM | 3350 ± 420 nM |
| O=C(Nc1ccccc1[As]1SCCCS1)c1ccc2c(c1)OCO2 [PZ5, N-(2-(1,3,2-dithiarsinan-2-yl)phenyl)benzo[d][1,3]dioxole-5-carboxamide] |  | 260 nM | 140 nM | 1010 nM | 820 nM |  | 270 nM |  | 240 nM | 5000 nM | 4500 nM | 400 nM | 830 nM | 300 ± 30 nM | 260 nM | 200 ± 20 nM | 140 nM |  |  |
| COc1cc(C(=O)Nc2ccc([As]3SCCCS3)cc2)cc(OC)c1OC [TAZ2, N-(4-(1,3,2-dithiarsinan-2-yl)phenyl)-3,4,5-trimethoxybenzamide] |  | 2000 nM | 1040 nM | 9100 nM | 5200 nM |  | 1600 nM |  | 1500 nM | 7300 nM | 6500 nM | 3500 nM | 2200 nM |  | 1000 nM |  | 600 nM |  |  |
| COc1cc(C(=O)Nc2ccccc2[As]2SCCCS2)cc(OC)c1OC [TAZ5, N-(2-(1,3,2-dithiarsinan-2-yl)phenyl)-3,4,5-trimethoxybenzamide] |  | 800 nM | 500 nM | 2000 nM | 1800 nM |  | 710 nM |  | 700 nM | 2200 nM | 1540 nM | 700 nM | 700 nM |  | 200 nM |  | 150 nM | 700 ± 30 nM | 700 ± 30 nM |
